In experiment [1] the target is T1, wildtype RET kinase (N-terminal GST tagged recombinant human RET cytoplasmic domain, aa 658-end) (Homo sapiens, UniProt P07949).
T1 construct: human RET cytoplasmic domain (aa 658-end); GST (N); purchased Eurofins 14-570M
T1 sequence (P07949 658-1114 limits assumed): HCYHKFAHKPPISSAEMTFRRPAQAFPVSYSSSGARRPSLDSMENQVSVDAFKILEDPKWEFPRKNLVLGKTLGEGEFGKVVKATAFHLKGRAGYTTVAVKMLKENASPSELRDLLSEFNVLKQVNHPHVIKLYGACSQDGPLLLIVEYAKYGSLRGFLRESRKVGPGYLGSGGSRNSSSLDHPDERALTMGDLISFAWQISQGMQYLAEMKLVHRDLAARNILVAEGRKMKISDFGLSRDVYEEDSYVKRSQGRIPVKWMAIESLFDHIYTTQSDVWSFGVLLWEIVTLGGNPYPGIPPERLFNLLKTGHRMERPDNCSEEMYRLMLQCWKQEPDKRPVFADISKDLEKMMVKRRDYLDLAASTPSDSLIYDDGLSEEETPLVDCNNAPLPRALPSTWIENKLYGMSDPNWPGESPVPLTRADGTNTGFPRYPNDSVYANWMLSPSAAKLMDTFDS
Description: RET enzyme assay (HTRF KinEASE TK), wildtype. In kind it is biochemical. Particulars: 1 mM ATP, 60 min incubation at 22° C. As to the method: (§1) Assay A: RET Enzyme Assay
(§2) Compounds of formulas I, II, or III are screened for their ability to inhibit wildtype, V804M, and G810S mutant RET kinase using CisBio's HTRF® KinEASE™TK assay technology. N-terminal GST tagged recombinant human RET cytoplasmic domain (aa 658-end) from Eurofins ([…]; Catalog No. 14-570M) or N-terminal GST tagged recombinant human V804M mutant RET cytoplasmic domain (aa 658-end) from Millipore (1.25 nM enzyme; Catalog No. 14-760) or N-Terminal GST-tagged recombinant human G810S (aa-658-end) (1.25 nM Enzyme; produced in insect cells) is incubated with 62.5 nM TK-substrate biotin (CisBio, part of Catalog No. 62TK0PEC) and 1 mM ATP along with test compound (0.4% final DMSO in the assay) in a 1× Cisbio enzymatic buffer consisting of […], 5 mM MgCl2, 0.04% BSA and 0.05% Tween20 in a volume of 10 μL. Compounds are typically prepared in a threefold serial dilution in DMSO and added to the assay to give the appropriate final concentration. After a 40-60 min (40 min for V804M, 60 min for WT and G810S) incubation at 22° C., the reaction is quenched by adding quench solution (10 μL) containing 7.8 nM Streptavidine-XL665 and 0.5×TK-ab-Cryptate in HTRF detection buffer (all from CisBio, part of Cat. No. 62TK0PEC). After a 60-80 min incubation (60 minutes for WT, 80 minutes for V804M and G810S) at 22° C., the extent of reaction is determined using a PHERastar plate reader via HTRF detection at excitation/emission 337/665 nm. Percent of inhibition is calculated with 0% inhibition referring to control conditions containing no compound (0.4% DMSO only) and 100% inhibition represented by conditions containing no enzyme. The % inhibition values are fit to a 4 parameter logistic curve, and the determined IC50 value is defined as the estimated concentration of inhibitor at the inflexion point of the fitted curve.
(In general: TR-FRET usually uses a lanthanide donor and a delayed reading to cut background.)

Experiment [2] concerns the target T2, V804M mutant RET kinase (N-terminal GST tagged recombinant human V804M mutant RET cytoplasmic domain, aa 658-end) (Homo sapiens, UniProt P07949, V804M).
T2 construct: human V804M mutant RET cytoplasmic domain (aa 658-end); GST (N); purchased Millipore 14-760
T2 sequence (P07949 658-1114 V804M limits assumed): T1 sequence (P07949 658-1114 limits assumed) with V147M
Description: RET enzyme assay (HTRF KinEASE TK), V804M. Format: biochemical. As to conditions: 1 mM ATP, 40 min incubation at 22° C. As for the experimental part: as §1, §2

The structures appear in SMILES notation. Numbering of substitutions follows the chain as printed.

One may read the IC50 as the concentration that inhibits the measured activity by half.

Consider `CC(C(=O)Nc1cc(C(C)(C)CC(F)(F)F)on1)c1ccc(-c2nn(C(C)C)c(N)c2C(N)=O)nc1` (single isomer, unassigned; isomer 2) [Example 68, 5-Amino-1-isopropyl-3-(5-(1-oxo-1-((5-(4,4,4-trifluoro-2-methylbutan-2-yl)isoxazol-3-yl)amino)propan-2-yl)pyridin-2-yl)-1H-pyrazole-4-carboxamide, Isomer 2], for which the half-inhibitory concentration (IC50) in experiment [1] and in experiment [2] was below 100 nM each time.
Regarding `CC(C(=O)Nc1cc(C(C)(C)C(F)(F)F)on1)c1ccc(-c2nn(C(C)C)c(N)c2C(N)=O)nc1` (single isomer, unassigned; isomer 2) [Example 64, 5-Amino-1-isopropyl-3-[5-(1-[[5-(1,1,1-trifluoro-yl)-1,2-oxazol-3-2-methylpropan-2-yl]carbamoyl]ethyl)pyridin-2-yl]pyrazole-4-carboxamide, Isomer 2], the IC50 in experiment [1] and in experiment [2] was below 100 nM throughout.

These data come from patent publication US11613533B2, “Compounds useful for inhibiting RET kinase” (Eli Lilly and Company, priority 2020, dated 2023).
